Structures can show the parent of a compound that is named as a salt.

This passage reports IC50 results from patent publication US20140187548A1, “6 SUBSTITUTED IMIDAZOPYRAZINES FOR USE AS MPS-1 AND TKK INHIBITORS IN THE TREATMENT OF HYPERPROLIFERATIVE DISORDERS” (BAYER INTELLECTUAL PROPERTY GMBH, priority 2010, published 2014).

The experiment deals with T1, human kinase Mps-1 (Homo sapiens, UniProt P33981).
T1 construct: N-terminally GST-tagged human full length recombinant Mps-1 kinase; GST (N); purchased Invitrogen, Karslruhe, Germany PV4071
T1 sequence (P33981 1-857): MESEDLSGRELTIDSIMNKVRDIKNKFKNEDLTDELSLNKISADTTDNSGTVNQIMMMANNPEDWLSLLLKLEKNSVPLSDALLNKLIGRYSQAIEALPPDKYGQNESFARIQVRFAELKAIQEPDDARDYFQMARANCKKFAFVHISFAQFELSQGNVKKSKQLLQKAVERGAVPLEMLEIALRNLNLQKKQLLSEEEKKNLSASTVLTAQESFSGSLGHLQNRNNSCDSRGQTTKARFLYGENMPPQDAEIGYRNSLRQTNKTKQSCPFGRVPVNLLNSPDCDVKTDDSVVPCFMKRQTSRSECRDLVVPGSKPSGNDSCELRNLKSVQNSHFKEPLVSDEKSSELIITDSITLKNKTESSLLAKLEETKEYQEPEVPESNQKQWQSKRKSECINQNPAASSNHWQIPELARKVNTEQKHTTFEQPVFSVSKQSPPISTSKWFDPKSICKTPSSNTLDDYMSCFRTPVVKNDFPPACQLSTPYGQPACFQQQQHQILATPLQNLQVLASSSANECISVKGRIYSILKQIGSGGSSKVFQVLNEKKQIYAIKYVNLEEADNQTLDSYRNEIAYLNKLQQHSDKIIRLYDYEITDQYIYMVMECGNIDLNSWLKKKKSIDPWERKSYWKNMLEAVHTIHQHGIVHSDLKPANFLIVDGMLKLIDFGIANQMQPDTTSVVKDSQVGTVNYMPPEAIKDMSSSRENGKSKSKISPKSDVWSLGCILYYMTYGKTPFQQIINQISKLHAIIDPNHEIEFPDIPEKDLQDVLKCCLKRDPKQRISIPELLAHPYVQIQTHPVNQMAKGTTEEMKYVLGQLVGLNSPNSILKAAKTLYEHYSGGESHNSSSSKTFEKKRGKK
Put plainly: Mps-1 kinase assay (TR-FRET). The class given is biochemical. To be noted: N-terminally GST-tagged human full length recombinant Mps-1; 10 μM ATP; 1 μM peptide substrate; 15 min pre-incubation; 60 min at 22° C. The method, boiled down: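 TR-FRET read-out: after 1 h binding at 22° C, Eu-labelled anti-phospho-Ser/Thr antibody transfers to SA-XLent on the phosphorylated biotinylated peptide. The enzyme is GST-tagged full-length human Mps-1, typically about 1 nM final, in the linear range.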
(In general: Time-resolved FRET reads energy transfer from a long-lived donor to a nearby acceptor.)
The IC50 is the concentration needed to halve the response being measured. With `NCCCCCCNc1nc(-c2ccccc2)cn2c(-c3ccc(C(=O)NC4CC4)cc3)cnc12` [Example 2-84, 4-{8-[(6-Aminohexyl)amino]-6-phenylimidazo[1,2-a]pyrazin-3-yl}-N-cyclopropylbenzamide], the IC50 was 1.6 nM.
To `O=C(NC1CC1)c1ccc(-c2cnc3c(NCC(F)(F)F)nc(-c4ccccc4)cn23)cc1` [Example 2-85, N-cyclopropyl-4-{6-phenyl-8-[(2,2,2-trifluoroethyl)amino]imidazo[1,2-a]pyrazin-3-yl}benzamide] belongs 2.8 nM; to `O=C(NC1CC1)c1ccc(-c2cnc3c(NCCOCC(F)(F)F)nc(-c4ccccc4)cn23)cc1` [Example 2-88, N-cyclopropyl-4-(6-phenyl-8-{[2-(2,2,2-trifluoroethoxy)ethyl]amino}imidazo[1,2-a]pyrazin-3-yl)benzamide], 3.6 nM.
As to `CC(C)CNc1nc(-c2ccccc2)c(Cl)n2c(-c3ccc(C(=O)NC4CC4)cc3)cnc12` [Example 3-1, 4-{5-chloro-8-[(2-methylpropyl)amino]-6-phenylimidazo[1,2-a]pyrazin-3-yl}-N-cyclopropylbenzamide], the IC50 is 10.7 nM.
The value for `CC(C)CNc1nc(-c2ccccc2)c(Br)n2c(-c3ccc(C(=O)NC4CC4)cc3)cnc12` [Example 4-1, 4-{5-bromo-8-[(2-methylpropyl)amino]-6-phenylimidazo[1,2-a]pyrazin-3-yl}-N-cyclopropylbenzamide] was 26.2 nM.
Consider `CC(C)CNc1nc(-c2ccccc2)c(F)n2c(-c3ccc(C(=O)NC4CC4)cc3)cnc12` [Example 5-1, N-cyclopropyl-4-{5-fluoro-8-[(2-methylpropyl)amino]-6-phenylimidazo[1,2-a]pyrazin-3-yl}benzamide], for which the 50% inhibitory concentration (IC50) worked out at 67 nM.
To `CC(C)CNc1nc(-c2ccc(CCO)cc2)cn2c(-c3ccc(C(=O)NC4CC4)cc3)cnc12` [Example 6-1, N-cyclopropyl-4-{6-[4-(2-hydroxyethyl)phenyl]-8-(isobutylamino)imidazo[1,2-a]pyrazin-3-yl}benzamide] belongs 1 nM; to `CC(C)CNc1nc(-c2ccc(C3CC3)cc2)cn2c(-c3ccc(C(=O)NC4CC4)cc3)cnc12` [Example 7-1, N-cyclopropyl-4-[6-(4-cyclopropylphenyl)-8-(isobutylamino)imidazo[1,2-a]pyrazin-3-yl]benzamide], 31.8 nM; to `NCCCNc1nc(-c2ccccc2)cn2c(-c3ccc(C(=O)NC4CC4)cc3)cnc12` [Example 8-1, 4-{8-[(3-Aminopropyl)amino]-6-phenylimidazo[1,2-a]pyrazin-3-yl}-N-cyclopropylbenzamide hydrochloride], 21.1 nM.
The value for `O=C(NC1CC1)c1ccc(-c2cnc3c(NCCCOC[C@@H](O)CO)nc(-c4ccccc4)cn23)cc1` [Example 9-1, N-cyclopropyl-4-{8-[(3-{[(2S)-2,3-dihydroxypropyl]oxy}propyl)amino]-6-phenylimidazo[1,2-a]pyrazin-3-yl}benzamide] was 3.4 nM.
To `Cc1cc(-c2cnc3c(NCCC(F)(F)F)nc(-c4ccc(F)cc4)cn23)ccc1C(=O)NC1CC1` [Example 10-1, N-cyclopropyl-4-{6-(4-fluorophenyl)-8-[(3,3,3-trifluoropropyl)amino]imidazo[1,2-a]pyrazin-3-yl}-2-methylbenzamide] belongs 3.6 nM; to `Cc1cc(-c2cnc3c(NCC4CCCO4)nc(-c4ccc(F)cc4)cn23)ccc1C(=O)NC1CC1` (stereo not shown) [Example 10-2, N-cyclopropyl-4-{6-(4-fluorophenyl)-8-[(tetrahydrofuran-2-ylmethyl)amino]imidazo [1,2-a]pyrazin-3-yl}-2-methylbenzamide], 9.1 nM.
For the compound `Cc1cc(-c2cnc3c(NCC(C)C)nc(-c4ccc(F)cc4)cn23)ccc1C(=O)NC1CC1` [Example 10-3, N-cyclopropyl-4-{6-(4-fluorophenyl)-8-[(2-methylpropyl)amino]imidazo[1,2-a]pyrazin-3-yl}-2-methylbenzamide], the IC50 came out at 5.1 nM.
Take `Cc1cc(-c2cnc3c(NCCC(C)CO)nc(-c4ccc(F)cc4)cn23)ccc1C(=O)NC1CC1` (stereo not shown) [Example 10-5, N-cyclopropyl-4-{6-(4-fluorophenyl)-8-[(4-hydroxy-3-methylbutyl)amino]imidazo[1,2-a]pyrazin-3-yl}-2-methyl-benzamide]: the 50% inhibitory concentration (IC50) is 4.8 nM.
To `Cc1cc(-c2cnc3c(NCC4CCC(C)(O)CC4)nc(-c4ccc(F)cc4)cn23)ccc1C(=O)NC1CC1` (stereo not shown) [Example 10-7, N-cyclopropyl-4-[6-(4-fluorophenyl)-8-{[(4-hydroxy-4-methylcyclo-hexyl)methyl]amino}imidazo[1,2-a]pyrazin-3-yl]-2-methylbenzamide] belongs 5.4 nM; to `Cc1cc(-c2cnc3c(NCC4CCN(C)C4)nc(-c4ccc(F)cc4)cn23)ccc1C(=O)NC1CC1` (stereo not shown) [Example 10-8, N-cyclopropyl-4-[6-(4-fluorophenyl)-8-{[(1-methylpyrrolidin-3-yl)methyl]amino}imidazo [1,2-a]pyrazin-3-yl]-2-methylbenzamide], 119 nM.
For `CCN1CCC(CNc2nc(-c3ccc(F)cc3)cn3c(-c4ccc(C(=O)NC5CC5)c(C)c4)cnc23)C1` (stereo not shown) [Example 10-9, N-cyclopropyl-4-[8-{[(1-ethylpyrrolidin-3-yl)methyl]amino}-6-(4-fluorophenyl)imidazo [1,2-a]pyrazin-3-yl]-2-methylbenzamide], the IC50 is 63.4 nM.
For the compound `Cc1cc(-c2cnc3c(NCCC4CC4)nc(-c4ccc(F)cc4)cn23)ccc1C(=O)NC1CC1` [Example 10-10, N-cyclopropyl-4-{8-[(2-cyclopropylethyl)amino]-6-(4-fluorophenyl)imidazo [1,2-a]pyrazin-3-yl}-2-methylbenzamide], the IC50 was found to be 16.6 nM.
To `Cc1cc(-c2cnc3c(NCC4CCOC4)nc(-c4ccc(F)cc4)cn23)ccc1C(=O)NC1CC1` (stereo not shown) [Example 10-11, N-cyclopropyl-4-{6-(4-fluorophenyl)-8-[(tetrahydrofuran-3-yl-methyl)amino]imidazo [1,2-a]pyrazin-3-yl}-2-methylbenzamide] belongs 3.3 nM; to `Cc1cc(-c2cnc3c(NCCCC(C)O)nc(-c4ccc(F)cc4)cn23)ccc1C(=O)NC1CC1` (stereo not shown) [Example 10-12, N-cyclopropyl-4-{6-(4-fluorophenyl)-8-[(4-hydroxypentyl)amino]imidazo[1,2-a]pyrazin-3-yl}-2-methylbenzamide], 7.1 nM; to `Cc1cc(-c2cnc3c(NCC4CC(=O)N(C)C4)nc(-c4ccc(F)cc4)cn23)ccc1C(=O)NC1CC1` (stereo not shown) [Example 10-13, N-cyclopropyl-4-[6-(4-fluorophenyl)-8-{[(1-methyl-5-oxopyrrolidin-3-yl)methyl]amino}imidazo[1,2-a]pyrazin-3-yl]-2-methylbenzamide], 7.2 nM.
To `Cc1cc(-c2cnc3c(NCC4CCOCC4)nc(-c4ccc(F)cc4)cn23)ccc1C(=O)NC1CC1` [Example 10-14, N-cyclopropyl-4-{6-(4-fluorophenyl)-8-[(tetra-hydro-2H-pyran-4-ylmethyl)amino]imidazo [1,2-a]pyrazin-3-yl}-2-methylbenzamide] belongs 3.3 nM; to `CCC(C)c1cn2c(-c3ccc(C(=O)NC4CC4)cc3)cnc2c(NCC(C)C)n1` (stereo not shown) [Example 11-1, 4-{6-(butan-2-yl)-8-[(2-methylpropyl)amino]imidazo[1,2-a]pyrazin-3-yl}-N-cyclopropylbenzamide], 5.4 nM; to `CC(C)CNc1nc(C(C)C)cn2c(-c3ccc(C(=O)NC4CC4)cc3)cnc12` [Example 11-2, N-cyclopropyl-4-{8-[(2-methylpropyl)amino]-6-(propan-2-yl)imidazo[1,2-a]pyrazin-3-yl} benzamide], 7.1 nM.
To `CCCc1cn2c(-c3ccc(C(=O)NC4CC4)cc3)cnc2c(NCC(C)C)n1` [Example 11-3, N-cyclopropyl-4-{8-[(2-methylpropyl)amino]-6-propylimidazo [1,2-a]pyrazin-3-yl}benzamide] belongs 5.4 nM.
